According to ChEMBL document CHEMBL1157022, “Synthesis, cytotoxicity and DNA-binding of novel bisnaphthalimidopropyl derivatives in breast cancer MDA-MB-231 cells” (Eur J Med Chem, 2010):

Columns and labels:
Nucleic Acid [1] = assay: Binding affinity to calf thymus DNA assessed as temperature required to cause 50% of DNA denatured at 10 uM by thermal denaturation assay; assay type: nucleic-acid assay; settings: Bos taurus
Nucleic Acid [2] = assay: Displacement of ethidium bromide from calf thymus DNA assessed as decrease of fluorescence of bound ethidium bromide by fluorometric assay; assay type: nucleic-acid assay; settings: Bos taurus
MDA-MB-231 [3] = assay: Cytotoxicity against human MDA-MB-231 cells after 24 hrs by MTT assay; assay type: functional, cell-based; settings: MDA-MB-231, 24 h
MDA-MB-231 [4] = assay: Cytotoxicity against human MDA-MB-231 cells after 48 hrs by MTT assay; assay type: functional, cell-based; settings: MDA-MB-231, 48 h
[5] = Cytotoxicity against human MCF10A cells after 24 hrs by MTT assay; assay type: cell-based; settings: MCF-10A
[6] = Cytotoxicity against human MCF10A cells after 48 hrs by MTT assay; assay type: cell-based; settings: MCF-10A
MCF7 = assay: Cytotoxicity against human MCF7 cells after 48 hrs; assay type: functional, cell-based; settings: MCF7, 48 h
CHO = assay: Cytotoxicity against CHO cells expressing MGBG polyamine transporter after 48 hrs by MTT assay; assay type: ADME, cell-based; settings: Cricetulus griseus
CHO-MG = assay: Cytotoxicity against MGBG polyamine transporter deficient CHO-MG cells after 48 hrs by MTT assay; assay type: ADME, cell-based; settings: Cricetulus griseus
[7] = system: MGBG polyamine transporter; assay: Ratio of IC50 for MGBG polyamine transporter deficient CHO-MG cells to IC50 for CHO cells expressing MGBG polyamine transporter; assay type: cell-based, Cricetulus griseus; settings: chinese hamster; read-out: Ratio IC50
MDA-MB-231 [8] = assay: Drug uptake in human MDA-MB-231 cells at 10 uM after 6 hrs by fluorescence microscopic analysis; assay type: ADME, cell-based; settings: mda-mb-231, 6 h
MDA-MB-231 [9] = assay: Drug uptake in human MDA-MB-231 cells at 10 uM after 0.5 hrs by fluorescence microscopic analysis; assay type: ADME, cell-based; settings: mda-mb-231, 0.5 h

| SMILES | Tm (Nucleic Acid [1]) [°C] | C50 (Nucleic Acid [2]) [µM] | IC50 (MDA-MB-231 [3]) [µM] | IC50 (MDA-MB-231 [4]) [µM] | IC50 [5] [µM] | IC50 [6] [µM] | IC50 (MCF7) [nM] | IC50 (CHO) [µM] | IC50 (CHO-MG) [µM] | selectivity ratio [7] | Drug uptake (MDA-MB-231 [8]) | Drug uptake (MDA-MB-231 [9]) |
| --- | --- | --- | --- | --- | --- | --- | --- | --- | --- | --- | --- | --- |
| O=C1c2cccc3cccc(c23)C(=O)N1CCCNCCCCCCNCCCN1C(=O)c2cccc3cccc(c23)C1=O | 91.9 | 1.5 | 7.22 | 4.54 | 0.84 | 0.83 |  |  |  |  |  |  |
| COc1cccc2c1C(=O)c1c(O)c3c(c(O)c1C2=O)C[C@@](O)(C(=O)CO)C[C@@H]3O[C@H]1C[C@H](N)[C@H](O)[C@H](C)O1 [DOXORUBICIN] | 86.4 |  | 14.3 | 3.61 | 0.75 | 0.18 |  |  |  |  |  |  |
| O=C1c2cccc3cccc(c23)C(=O)N1CCCNCCCNCCCCNCCCNCCCN1C(=O)c2cccc3cccc(c23)C1=O |  |  |  |  |  |  | 1380 |  |  |  |  |  |
| Br.O=C1c2cccc3cccc(c23)C(=O)N1CCCNCCCCNCCCNCCCN1C(=O)c2cccc3cccc(c23)C1=O [BISNAPHTHALIMIDOPROPYL SPERMIDINE TRIHYDROBROMIDE] | 91.5 | 1.4 | 12.7 | 4.59 | 4.19 | 3.97 | 1380 | 76.5 | 74.6 | 1 | Active |  |
| Br.O=C1c2cccc3cccc(c23)C(=O)N1CCCNCCCCCCCCNCCCN1C(=O)c2cccc3cccc(c23)C1=O | 88.7 | 1.7 | 4.99 | 2.68 | 2.77 | 0.87 |  | 5.8 | 5.1 | 0.9 |  | Active |
| NCCCN1C(=O)c2cccc3cccc(c23)C1=O [NAPHTHALIMIDOPROPYLAMINE] | 66.3 | > 10 | > 40 | > 40 | > 40 | > 40 |  |  |  |  |  |  |
| O=C1c2ccccc2C(=O)N1CCCNCCCCCCCCCCNCCCN1C(=O)c2ccccc2C1=O | 72 | > 10 | > 40 | > 40 | > 40 | > 40 |  |  |  |  |  |  |
| CC(/C=N/NC(=N)N)=N\NC(=N)N [MITOGUAZONE] |  |  |  |  |  |  |  | 3.3 | > 100 | > 30.2 |  |  |
| O=C1c2cccc3cccc(c23)C(=O)N1CCCNC1CCCC(CC2CCCC(NCCCN3C(=O)c4cccc5cccc(c45)C3=O)C2)C1 (configuration not stated) | 87.4 | 3.8 | 6.84 | 6.06 | 6.06 | 5.71 |  | 6.2 | 6.3 | 1 |  |  |
| CN1CCN(c2ccc3[nH]c(-c4ccc5[nH]c(-c6ccc(O)cc6)nc5c4)nc3c2)CC1 | 78.8 |  |  |  |  |  |  |  |  |  |  |  |
| O=C1c2cccc3cccc(c23)C(=O)N1CCCNCCCCCCCCCCCCNCCCN1C(=O)c2cccc3cccc(c23)C1=O | 81.2 | 3.4 | 5.11 | 6.88 | 4.17 | 6.83 |  |  |  |  |  |  |
| O=C1c2cccc3cccc(c23)C(=O)N1CCCNCCCCCCCCCCNCCCN1C(=O)c2cccc3cccc(c23)C1=O [BNIPDADEC] | 84.4 | 1.8 | 4.85 | 3.32 | 2.77 | 2.82 |  |  |  |  |  |  |
| O=C1c2cccc3cccc(c23)C(=O)N1CCCNCCCCNCCCN1C(=O)c2cccc3cccc(c23)C1=O | 89.2 | 1.5 | 7.86 | 5.12 | 8.1 | 5.67 |  |  |  |  |  |  |
| O=C1c2c(O)ccc(O)c2C(=O)c2c(NCCNCCO)ccc(NCCNCCO)c21 | 91 |  |  |  |  |  |  |  |  |  |  |  |
| Br.O=C1c2cccc3cccc(c23)C(=O)N1CCCNCCOCCOCCNCCCN1C(=O)c2cccc3cccc(c23)C1=O | 87.9 | 1.9 | 12.4 | 6.15 | 6.1 | 2.27 |  | 76.1 | 26.9 | 0.4 | Active |  |
